Data published in patent US20250135012A1, “DENDRIMER CONJUGATES OF SMALL MOLECULE BIOLOGICS FOR INTRACELLULAR DELIVERY” (The Johns Hopkins University, priority 2021, published 2025).

What was measured:
TNFα [1] = assay: TNFα mRNA in LPS stimulated BV2 cells (PCR); type: cell-based, murine; settings: BV2, LPS 100 ng/mL, 24 h, 1-100 nM
Description: (§1) HMEC and BV2 samples were then collected with TRIzol for polymerase chain reaction (PCR) analysis. In brief, samples were subjected to a freeze-thaw cycle with TRIzol followed by the addition of 200 μL of chloroform (Thermo Fisher Scientific). The samples were shaken and placed in ice for 15 min. To aid in the separation of aqueous and organic layers, samples were centrifuged for 15 min at 15,000 g. The aqueous solution was collected and isopropanol was added to each sample (500 μL; Thermo Fisher Scientific). Samples were centrifuged again for 15 min at 15,000 g then washed with 75% ethanol in DEPC-treated water.
(§2) RNA content was determined through Nanodrop and equivalent amount of RNA from each sample were converted to complementary DNA (Applied Biosystems, Foster City, CA). PCR analysis was performed on STEP ONE PLUS® real-time PCR system (Applied Biosystems) with Fast SYBR Green reagent. PCR primers for VEGF-A, GAPDH, and IL-1β were obtained from Bio-Rad Laboratories (Hercules, CA). Primers were purchased from Integrated DNA Technologies (Coralville, IA). Primers for TNFα were: […]

IL-1β = IL-1β mRNA in LPS stimulated BV2 cells (PCR); type: cell-based, murine
Description: as §1, §2

VEGF-A [2] = assay: VEGF-A mRNA in HMECs (PCR); type: cell-based, human
Description: as §1, §2

HMECs = assay: HMEC Matrigel tube formation assay; type: cell-based, human; settings: 24 h pretreatment, imaged after 7 h on Matrigel
Description: HMECs were seeded onto 12-well plates at a density of 1×10^5 cells/mL and allowed to grow to confluency. […] After 24 h of treatment, cells were collected by detaching them with trypsin, collecting the resulting cell suspension, and centrifuging at 300 g for 5 min. Tube formation assay was performed according to protocol provided by Lonza.
In brief, on the day of the assay, 96-well plates were coated with 75 μL of phenol-free […]® and left to polymerize at 37° C. for 20 min. The cell pellets were re-suspended with 300 μL of media and 75 μL of the solution (400,000 cells/mL) were seeded onto each […]®-coated wells.

[3] = tested on: choroidal neovascularization (CNV); assay: Laser-induced CNV mouse model, CNV area; type: in vivo, C57BL/6J mice
Description: Prior to laser induction of CNV, a cocktail of ketamine/xylazine/acepromazine (100 mg/kg of ketamine, 20 mg/kg of xylazine, and 3 mg/kg of acepromazine) was injected intraperitoneally to anesthetize the animals. Animals were then treated with a drop of topical 2.5% Phyenylephrine Hydrochloride ophthalmic solution followed by 0.5% Tetracaine hydrochloride ophthalmic solution for pupil dilation. A Micron III SLO (Phoenix Research Labs, Pleasanton, CA) was used to image the fundus and focus the attached laser system (Phoenix Research Labs). Four equidistantly placed laser burns in the Bruch's membrane were created with a laser power setting of 240 mW at a duration of 70 ms.
In brief, a 30G insulin syringe was used to create an injection opening in the sclera. A 10 μL Hamilton syringe was then used to administer the treatment directly into the vitreous cavity. After treatment, animals were given topical ocular antibiotic (gentamicin and prednisolone acetate ophthalmic ointment) to prevent infection. Animals were then sacrificed at set time points post treatment (7 and 14 days) for imaging and biochemical analysis.
(§3) At set time points, animals were sacrificed and the enucleated eyes fixed in 4% paraformaldehyde for 1 h. The choroid and retina are then dissected out. Tissues were blocked and permeabilized through 2 h incubation with a solution of 5% normal goat serum, 0.3% Triton X-100, and 1% bovine serum albumin at room temperature under constant agitation. To visualize macrophage, tissues were stained with anti-Iba1 antibody (1:100; FUJIFILM® Wako Chemicals, Osaka, Japan) followed by ALEXA FLUOR® 405-labeled goat anti-rabbit secondary antibody (1:200; Abcam, MA, USA). Blood vessels were stained with FITC-labeled isolectin (GS IB4) (1:100; Life Technologies, Eugene, OR, USA).
(§4) Flat-mounts were created by making four radial incisions on the tissue and mounting the relaxed tissues on coverslips. CNV formation was imaged with confocal 710 microscope (Carl Zeiss, Oberkochen, Germany) for biodistribution, and with an Axiovert phase contrast microscope for area calculation.

VEGF-A [4] = assay: Choroid VEGF-A protein by ELISA, CNV mouse model; type: in vivo
Description: Eyes were dissected immediately after enucleation without fixation. The choroid was collected and stored at −80° C. prior to analysis. For ELISA analysis, choroids were immersed in T-PER protein extraction buffer (Thermo Fisher Scientific) and homogenized with 0.9-2.0 mm stainless steel beads on a Bullet Blender Storm tissue homogenizer (Next Advantage Inc., Averill Park, NY). The supernatant was centrifuged to collect the aqueous solution. The samples were stored in −80° C. and used without further processing for ELISA detection of VEGF-A levels.

VEGF-A [5] = assay: Choroid VEGF-A mRNA by PCR, CNV mouse model; type: in vivo; settings: day 14
Description: (§5) For PCR, choroids were immersed in TRIzol, homogenized with steel beads, and filtered through Corning COSTAR SPIN-X® centrifuge tube filters (Sigma-Aldrich) to remove tissue solids. The RNA was isolated following the previously described protocol and the RNA concentration was determined through Nanodrop. Equivalent amounts of RNA were converted to complementary DNA (cDNA) and analyzed with Fast SYBR Green reagent through the STEP ONE PCR® system.

TNFα [6] = assay: Choroid TNFα mRNA by PCR, CNV mouse model; type: in vivo
Description: as §5

[7] = tested on: CNV area (macrophages, endothelial cells); assay: In vivo distribution and colocalization, CNV mouse model
Description: For biodistribution studies, 1 μg of Cy5-D-miR126-Cy3 or miR-126-Cy3 on a nucleic acid basis (at concentration of 1 μg/μL) were administered to the animals in accordance to the above steps. Tissues were extracted at set time points (1, 3, 5, 7, 14 days post-treatment).
as §3, §4
To assess uptake and distribution, Cy3 labeled miR-126 and dually labeled Cy5-D-miR126-Cy3 were injected into laser CNV mouse models and choroids were collected at 1, 3, 5, 7, 14 days post-injection. Iba1 staining was used to visualize the intracellular environment of macrophage, and isolectin GS-IB4 was used to stain for both blood vessels and macrophages.

[8] = 24 h post-injection (earliest time point)

“miR-126: sense 5′-UCGUACCGUGAGUAAUAAUGCG-3′ (SEQ ID NO: 4); antisense 5′-CGCAUUAUUACUCACGGUACGA-[Thiol C6 S—S]-3′ (SEQ ID NO: 5) (3' thiol C6 S-S on antisense; misc_feature 22 3' end linked to Thiol-Modifier C6 S-S)” was tested, and the “knockdown of TNFα” value (TNFα [1]) was about 50%, the “concentration with the higher/high IL-1β knockdown effect” value (IL-1β) was 10 nM and the “dose response of IL-1β knockdown” value (IL-1β; 1-100 nM) was “inverse dose response”. The “doses repressing VEGF-A at the same level as lower doses of D-miR126” value (VEGF-A [2]) was 10 to 100 nM, the “knockdown of VEGF-A production” value (VEGF-A [2]; 24 h, full-serum) was about 20% and the network formation (HMECs) was “disruption of network formation”. The CNV area ([3]; day 7, one intravitreal dose on day of CNV induction) was ~8,000 μm^2, the “CNV area decrease (significance)” value ([3]; day 14) was “insignificant decrease” and the “reduction of CNV area compared to the control” value ([3]; day 14) was about 10%. For the same substance, the CNV area ([3]; day 14, one intravitreal dose) was ~8,000 μm^2, the “VEGF-A protein vs untreated” value (VEGF-A [4]; day 7) was “significant decrease” and the “VEGF levels, treated vs untreated animals” value (VEGF-A [4]; day 14) was “no differences”. The “VEGF-A mRNA levels” value (VEGF-A [5]) was “still reduced”, the “TNFα mRNA” value (TNFα [6]; 7 days, not statistically significant) was “elevated” and the “TNFα mRNA” value (TNFα [6]; 14 days) was “suppressed TNFα”. For the same substance, the “fraction of Cy3 (miR-126) signal colocalized with Iba1 (macrophages)” value [7, 8] was “around 2%”, the “fraction of signal in combined macrophage/endothelial population (isolectin GS-IB4)” value [7, 8] was “around 3%” and the “time in the CNV target area” value ([7]; intravitreal, confocal microscopy) was “up to 7 days”. For the same substance, the “fraction of signal colocalized within macrophages” value ([7]; peak at 5 days) was about 10% and the “fraction of signal within combined macrophage/endothelial population” value ([7]; peak at 5 days) was about 15%.
